Measured values published in article PMC3070621, “Generation of novel cationic antimicrobial peptides from natural non-antimicrobial sequences by acid-amide substitution” (Annals of Clinical Microbiology and Antimicrobials, 2011).
No end group written: not given here.

Legend:
[1] = system: Salmonella typhimurium IFO13245; format: cell-based; settings: murium IFO13245, 2 h, pH 7.5
Experimental: (§1) Microbicidal assay was performed as previously described. A low ionic strength condition was used to detect bactericidal activity with higher sensitivity. Briefly, each microbial strain in the mid-exponential phase was suspended in 10 mM Tris/HCl, pH 7.5. The microbial suspension was mixed with peptides. After 2 h incubation, the suspension was diluted 1,000 times and inoculated on to plates of IFO702 medium (1% polypeptone, 0.2% yeast extract, 0.1% MgSO4 7H2O, 2% agar). The numbers of colonies were counted, and a plot of peptide concentration vs colony number was created.

[2] = system: Saccharomyces cerevisiae MAFF113011; format: cell-based; settings: MAFF113011, 2 h, pH 7.5
Experimental: as §1

Escherichia coli JM109 = format: cell-based; settings: JM109, 2 h, pH 7.5
Experimental: as §1

[3] = system: Bacillus subtilis IFO3134; format: cell-based; settings: IFO3134, 2 h, pH 7.5
Experimental: as §1

[4] = system: Serratia marcescens IFO3736; format: cell-based; settings: IFO3736, 2 h, pH 7.5
Experimental: as §1

[5] = system: Pseudomonas aeruginosa IFO3899; format: cell-based; settings: IFO3899, 2 h, pH 7.5
Experimental: as §1

[6] = system: Staphylococcus aureus IFO12732; format: cell-based; settings: IFO12732, 2 h, pH 7.5
Experimental: as §1

[7] = system: Micrococcus luteus IFO12708; format: cell-based; settings: IFO12708, 2 h, pH 7.5
Experimental: as §1

[8] = cited from earlier work
Human erythrocytes = test: Hemolytic assay; format: cell-based; settings: peptide 300 μg/mL, 10 mM Tris-HCl pH 7.5 with 308 mM sucrose, 0.5 h, A540, pure water = 100% lysis
Experimental: Hemolytic assay was performed as previously described. Human erythrocytes were used. Hemolysis was estimated as the leakage of haemoglobin. The erythrocytes were washed and resuspended in 10 mM Tris-HCl, pH 7.5, containing 308 mM sucrose. The erythrocyte suspension was diluted by 30%. The diluted suspension was mixed with the equal volume of peptide solution dissolved in the same buffer. After 0.5 h of incubation, the test suspension was centrifuged to remove the intact erythrocytes. The supernatant was diluted, and A540 was measured. The hemolysis caused by pure water was defined as 100% lysis.

[9] = Liposome disruption assay (calcein release), PG/CL liposomes; settings: PG:CL = 3:1 (molar), 10 mM Tris-HCl pH 7.5 with 350 mM sucrose, room temperature, three independent trials
Experimental: (§2) Membrane-disrupting activity was estimated by liposome disruption assay. Bovine heart phosphatidylglycerol (PG), egg cardiolipin (CL), and egg phosphatidylcholine (PC) were purchased from Avanti Polar Lipids, Inc., Alabama, USA. A lipid film was prepared by rotary evaporation of lipid solution (1 mg lipid in 1 ml chloroform). The lipid film was hydrated with 1 ml of 10 mM Tris-HCl buffer (pH 7.5) containing 75 mM calcein. Lipid dispersions were sonicated and subjected to five freeze-thaw cycles. Non-trapped calcein was removed by gel filtration on a Sephacryl S-300 spin column (GE Healthcare Bio-Science Corp., Piscataway, NJ, USA) equilibrated with 10 mM Tris-HCl (pH 7.5) containing 175 mM NaCl and 1 mM EDTA. These calcein-entrapped liposomes were diluted at a ratio of 1:1000 in 10 mM Tris-HCl (pH 7.5) containing 350 mM sucrose. Calcein release after membrane disruption was evaluated by measuring fluorescence intensity at 515 nm with excitation at 492 nm on a RF-5300PC spectrofluorometer at room temperature.
Figure 4 Membrane-disruption against acidic-liposomes. Calcein release from vesicles consisting of PG:CL = 3:1 was measured. Each point was obtained from three independent trials using a single preparation of liposomes and peptides, and represents the mean ± standard error of the mean.

[10] = Liposome disruption assay (calcein release), PC liposomes
Experimental: as §2

[11] = Precipitation in the presence of PG/CL liposomes (CD sample conditions); format: physicochemical; settings: peptide 100 μg/ml, PG/CL liposome 500 μg/ml, 10 mM Tris-HCl pH 7.5, 20°C
Experimental: CD spectra were recorded on a J-720 spectropolarimeter (JASCO, Tokyo, Japan) in the far-ultraviolet (UV) range from 190 to 260 nm using a 0.1 cm thermostatted cell at 25°C. Peptides were dissolved in 10 mM Tris-HCl (pH 7.5) containing tri-fluoroethanol (TFE) at 0-100%. For measurement under the presence of liposomes, peptides were dissolved at 100 μg/ml containing 500 μg/ml liposomes at 20°C.
Furthermore, membrane-disruptive activities against liposomes were also estimated. A liposome dye-leakage assay was used. […] In contrast, NP2P and NP3P damaged the PG/CL liposome membrane at ≥0.3 μg/ml (Figure 4). The concentration was equal or lower than MBCs against Gram-positive bacteria, which were measured under identical ionic conditions. […] Since CD spectra could not be measured, the conformation of NP3P in the presence of PG/CL membrane remains unclear.

Row | Substance | MBC [1] | MBC [2] | MBC (Escherichia coli JM109) | MBC [3] | MBC [4] | MBC [5] | MBC [6] | MBC [7] | enhancer activity for membrane-disruptive antimicrobial peptides [8] | Hemolytic activity (%) (Human erythrocytes) | concentration causing dye-leakage (membrane damage) of PG/CL liposomes [9] | concentration causing dye-leakage (membrane disruption) of PC liposomes ([10]; PC only liposomes, 10 mM Tris-HCl pH 7.5 with 350 mM sucrose, room temperature) | precipitation in the presence of PG/CL liposome [11] | effect on PC liposome membrane (in words) ([10]; PC liposomes, data not shown)
1 | HRRSVAHQEEASLHVKTDELPSPDTVREQL-OH [P4P] | >300 (>300) μg/ml | >300 (>300) μg/ml | >300 (>300) μg/ml | >300 (>300) μg/ml | >300 (>300) μg/ml | >300 (>300) μg/ml | >300 (>300) μg/ml | >300 (>300) μg/ml | – | – | – | – | – | –
2 | HRRSVAHQQQASLHVKTNQLPSPNTVRQQL-OH [NP4P] | >300 (>300) μg/ml | >300 (>300) μg/ml | >300 (>300) μg/ml | >300 (>300) μg/ml | >300 (>300) μg/ml | >300 (>300) μg/ml | >300 (>300) μg/ml | >300 (>300) μg/ml | enhancer activity for membrane-disruptive antimicrobial peptides was detected | – | – | – | – | –
3 | RRRFVAEQDAIHSRVSREVPTLSDSV-OH [P1P] | > 300 µg/mL | > 300 µg/mL | > 300 µg/mL | > 300 µg/mL | >300 (>300) μg/ml | > 300 µg/mL | > 300 µg/mL | > 300 µg/mL | – | 0.00 ± 0.00% | – | – | – | –
4 | RRRFVAQQNAIHSRVSRQVPTLSNSV-OH [NP1P] | 30 µg/mL | 200 µg/mL | 10 µg/mL | 30 µg/mL | >300 (>300) μg/ml | 20 µg/mL | 10 µg/mL | 30 µg/mL | – | 1.32 ± 0.02% | > 200 µg/mL | > 200 µg/mL | – | –
5 | RRRSVGEEDAIPSHIEVNKFFLRKPAKEHI-OH [P3P] | > 300 µg/mL | > 300 µg/mL | > 300 µg/mL | > 300 µg/mL | >300 (>300) μg/ml | 70 µg/mL | > 300 µg/mL | 200 µg/mL | – | 1.69 ± 0.05% | – | – | not affected | –
6 | RRRSVGQQNAIPSHIQVNKFFLRKPAKQHI-OH [NP3P] | 20 µg/mL | 7 µg/mL | 7 µg/mL | 20 µg/mL | >300 (>300) μg/ml | 20 µg/mL | 5 µg/mL | 10 µg/mL | – | 2.61 ± 0.02% | ≥ 0.3 µg/mL | – | precipitated | did not affect PC liposome membrane
